According to patent publication US20080026952A1, “HCV replicon shuttle vectors” (priority 2005, published 2008):

How the values were obtained:
[1] = tested on: HCV replicons with NS5B from genotype-1a and genotype-1b clinical isolates in Huh-7 cells; assay: Sensitivity of treatment naive NS5B clinical isolates versus reference replicons (FIG. 3); format: cell-based, HCV genotype-1a and genotype-1b; settings: pools of 96 clones per isolate, reference replicons Con1 (genotype-1b) and H77 (genotype-1a)
Experimental: Four million cured Huh7 cells were transfected with 5 μg of in vitro transcribed RNA using electroporation. Cells were then resuspended in 7.2 ml of DMEM containing 5% FBS and plated in 96-well plate at 50000 cells/well (in 90 μl final volume). Inhibitors were added 24 hours post-transfection in 3 fold dilutions at a final DMSO concentration of 1% and firefly luciferase reporter signal was read 72 hours after addition of inhibitors using the Luciferase Assay system (Promega, cat #E1501). The IC50 values were assessed as the inhibitor concentration at which a 50% reduction in the level of firefly luciferase reporter was observed as compared to the level of firefly luciferase signal without the addition of compounds. Results of studies testing the inhibitory effects of the compound, 2′-C-Methyl-Cytidine, on replication of pSS-1—1a_NS5B—5′AsiSI—3′RsrII and replicons with patient-derived NS5B sequences are shown in Table 2.
In order to test the sensitivity of HCV polymerase inhibitors across genetically diverse and treatment naive clinical isolates, the NS5B coding region from the isolates was amplified and cloned into the replicon shuttle replicons (clinical isolates from genotype-1a were cloned into pSS-1—1a—5′AsiSI_lacZAmC—3′RsrII and genotype-1b clinical isolates were cloned into pSC—1b—5′AsiSI_lacZAmC—3′RsrII). 96 molecular clones were pooled for each clinical isolate. […]

[2] = tested on: HCV replicon containing NS5B from Clinical Isolate Pt 5 in Huh7 cells; assay: Transient replicon phenotypic assay (firefly luciferase), patient-derived NS5B Pt 5; format: cell-based, HCV genotype 1a; settings: Hepatitis C virus, genotype 1a, Huh-7, 72 h, read-out: 2′-C-Me-C IC50
Experimental: (§1) Five micrograms of DNA plasmids were linearized by Sca I restriction enzyme (Roche). After overnight digestion at 37° C., the DNA was purified using Qiagen PCR purification kit. One microgram of linearized DNA was used for the in vitro transcription using T7 Mega script kit following manufacturer's protocol (Ambion). After 2 hours of incubation at 37° C., DNase treatment was performed for 30 minutes at 37° C. to remove the DNA template. In vitro transcribed RNA was then purified using NucAway Spin Column following manufacturer's protocol (Ambion).
(§2) Cured hepatoma cell line Huh7 were cultured at 37° C. in a humidified atmosphere with 5% CO2 in Dulbecco's Modified Eagle Medium (DMEM) supplemented with Glutamax™ and […] sodium pyruvate (Cat #10569-010). The medium was further supplemented with 10% (v/v) FBS (Cat #16000-036) and 1% (v/v) penicillin/streptomycin (Cat #15140-122). All reagents were from Invitrogen/Gibco.
(§3) Four million cured Huh7 cells were transfected with 5 μg of in vitro transcribed RNA using electroporation. […] Inhibitors were added 24 hours post-transfection in 3 fold dilutions at a final DMSO concentration of 1% and firefly luciferase reporter signal was read 72 hours after addition of inhibitors using the Luciferase Assay system (Promega, cat #E1501). […]

[3] = tested on: HCV replicon containing NS5B from Clinical Isolate Pt 9 in Huh7 cells; assay: Transient replicon phenotypic assay (firefly luciferase), patient-derived NS5B Pt 9; format: cell-based, HCV genotype 1a; settings: Hepatitis C virus, genotype 1a, Huh-7, 72 h, read-out: 2′-C-Me-C IC50
Experimental: as §1, §2, §3

[4] = tested on: HCV replicon pSS-1_1a_NS5B_5′AsiSI_3′RsrII in Huh7 cells; assay: Transient replicon phenotypic assay (firefly luciferase), reference shuttle vector; format: cell-based, HCV genotype 1a (H77); settings: Hepatitis C virus, Huh-7, 72 h, read-out: 2′-C-Me-C IC50
Experimental: as §1, §2, §3

[5] = tested on: HCV replicon containing NS5B from Clinical Isolate Pt 6 in Huh7 cells; assay: Transient replicon phenotypic assay (firefly luciferase), patient-derived NS5B Pt 6; format: cell-based, HCV genotype 1a; settings: Hepatitis C virus, genotype 1a, Huh-7, 72 h, read-out: 2′-C-Me-C IC50
Experimental: as §1, §2, §3

[6] = tested on: HCV replicon containing NS5B from Clinical Isolate Pt 7 in Huh7 cells; assay: Transient replicon phenotypic assay (firefly luciferase), patient-derived NS5B Pt 7; format: cell-based, HCV genotype 1a; settings: Hepatitis C virus, genotype 1a, Huh-7, 72 h, read-out: 2′-C-Me-C IC50
Experimental: as §1, §2, §3

[7] = tested on: HCV replicon containing NS5B from Clinical Isolate Pt 8 in Huh7 cells; assay: Transient replicon phenotypic assay (firefly luciferase), patient-derived NS5B Pt 8; format: cell-based, HCV genotype 1a; settings: Hepatitis C virus, genotype 1a, Huh-7, 72 h, read-out: 2′-C-Me-C IC50
Experimental: as §1, §2, §3

Structure (SMILES)	potency across the NS5B clinical isolates as compared to the reference replicons [1]	IC50 [2] [nM]	IC50 [3] [nM]	IC50 [4] [nM]	IC50 [5] [nM]	IC50 [6] [nM]	IC50 [7] [nM]
O=C(O)c1cccs1 [thiophene-2-carboxylic acid]	variable potencies	–	–	–	–	–	–
C1=NNSc2ccccc21 [benzothiadiazine]	variable potencies	–	–	–	–	–	–
C[C@@]1(O)[C@H](O)[C@@H](CO)O[C@H]1n1ccc(N)nc1=O [2′-C-Me-C, 2′-C-Methyl-Cytidine]	–	300 ± 50	400 ± 60	400 ± 30	300 ± 40	300 ± 50	400 ± 70
